# Results as given in patent publication US20260144805A1, “CANNABIDIOL COMPOSITIONS FOR USE IN THE TREATMENT OF NEURODEGENERATIVE AND NEUROLOGICAL DISORDERS” (JAZZ PHARMACEUTICALS RESEARCH UK LIMITED, priority 2022, published 2026).
# Experiments:
# rTg4510 mice = test: Open Field (OF) test, locomotor activity in rTg4510 mouse model of Alzheimer's Disease (Example 2; DS = DS-C); format: in vivo; details: Week 31; for Locomotor activity totals, % vs Wild-type / Locomotor activity totals, % vs rTg4510 / Locomotor activity totals, Mean: Risperidone 0.125 mg/kg i.p.
# Experimental: The aim of this study was to evaluate the efficacy of the present drug substance to modulate the agitation-like behaviours in the rTg4510 regulatable mouse model of Alzheimer's Disease (AD). Animals were tested in a behavioural assay, the Open Field (OF) test to measure locomotor activity (LMA). Activity was first assessed at a 21-week-old baseline to determine whether a hyperactive phenotype (to be used as a proxy for agitation) had developed and was further assessed at 2 subsequent ages in acute and chronic efficacy phases.
# Ninety male rTg4510 (CC) mice and 15 wild-type (WW) (Tg(Camk2a-tTA)1Mmay Fgf14^Tg(tetO-MAPT*P301L)4510Kha/J, Jax strain #024854, licensed from the Mayo Clinic, USA) were split into 2 cohorts, 4 weeks apart in age; cohort 1 contained 53 mice (8 WW and 45 CC) and cohort 2 contained 52 mice (7 WW and 45 CC). Relative humidity was 55±15% throughout. Mice were housed in individually ventilated cages on a 12 h/12 h light/dark cycle (lights on at 07.00 h; illumination by red light during the dark phase), at an ambient temperature of 24±4° C. with free access to standard rodent maintenance diet and filtered water. Animals were allowed to acclimatise to the above conditions for 7-10 days prior to the study start. All housing groupings were preserved until the mice were approximately 5 months old, at which point they were singly housed.
# Doxycycline administration: a subset of animals in cohort 2 (n=15) was administered 2× daily oral bolus doses of doxycycline hyclate (10 mg/kg p.o. in 5% glucose, Sigma Aldrich) at 13 weeks of age, followed by continuous exposure to normal lab chow containing 200 ppm doxycycline (Envigo Teklad 2018 TD.00502 no colourants, irradiated and vacuum-packed). All other animals received Envigo Teklad 2018 diet. All diet was provided ad libitum.
# Following this regime, animals were evaluated in Open Field (OF) test, before being deeply anaesthetised at the end of the behavioural testing prior to biofluid sampling and tissue harvesting.
# Specifically, the material was solubilised by the addition of 50 μL of 10% glacial acetic acid and making up to volume with 0.9% saline (Aquapharm, Animal Care, York, UK, Lot 21030311).
# Drug Substance (DS): (i.e., DS-C, See Table B in Example 1) Dosing volume was 10 mL/kg and DS was formulated at the 150 mg/kg dose in a vehicle of ethanol: Kolliphor HS15: 0.9% saline (1:12:87, w/w/v) which were stored at room temperature and added at approximately 60° C. to form solutions which were subsequently stable at room temperature. All dosing formulations were protected from light whenever possible. Dosing solutions were made fresh on the day of dosing, with lower dose formulations being prepared by dilution from the 150 mg/kg dosing solution at room temperature.
# Locomotor activity was assessed by OF test in the light phase of the light-dark cycle at weeks 21, 26 and 31. An automated beam break apparatus (40 cages) was used for the assessment of locomotor activity in rats and mice. Each cage had 4 beams; 1 ‘y’ and 3 ‘x’ which triggered a signal through capacitors when the beam was broken. Signals were collected by data loggers and processed accordingly. All animals were placed in the apparatus and spontaneous activity was assessed for a four-hour period between 0900 and 1300. Animals were then removed from the apparatus and returned to their home cages. LMA assessment was split over 2 consecutive days at each time point.
# For locomotor data, a log (x+1) transformation was used. For weeks 21 & 26, means and SEMs were calculated from the transformed data. Analysis was by Friedman's two-way nonparametric ANOVA with treatment and test day as factors to compare each group to the WW animals, and (where appropriate) Doxycycline with the untreated rTg4510 group. For week 30, data excluding the WW and Doxycycline groups for each time period were analysed by robust regression model using M estimation, Huber weighting, using the default parameter c=1.345. […]
# rat VPA model = test: Social interaction: Social Approach Avoidance (SAA) P60 in rat VPA model (Example 5; DS = DS-E); format: in vivo; details: adult; risperidone 0.125 mg/kg
# Experimental: Time-mated female Wistar rats were administered a single dose of valproic acid (VPA, 600 mg/kg, i.p.) on gestational day 12.5. Male offspring were delivered and confirmation of the VPA induced developmental deficit was rapidly achieved by examination of characteristic “tail kinks” in the juvenile animals. The timeline of experiments is outlined in FIG. 8 and animals were randomly allocated to treatment groups (Table O).
# Control animals were administered sterile saline (0.9% w/v, i.p.) in utero and the vehicle control (ethanol: Kolliphor HS15: saline (1:1:18, v/v/v), i.p.
# This test was originally used for assessing anxiety-like behavior and subsequently used to assess the social behavior in potential animal models of schizophrenia (Sams-Dodd, 1995 Behav Pharmacol. 6:55) but has been extended to the study of autism models (Schneider and Przewlocki, 2005 Neuropsychopharmacol. 30:80). Therefore, utilising a model based on published designs (Brodkin et al., 2004 Brain Res. 1002:151; Moy et al., 2004 Genes Brain Behav. 3:287) adult animals were assessed for social preference following prenatal VPA exposure whereby a novel animal was introduced to the test arena (n=8). The main outcome measure was the time engaged in active social behavior. Additionally, the time spent in each of the social, non-social and neutral chamber was also determined. […]
smiles,measurement,setting,value
Cc1nc2n(c(=O)c1CCN1CCC(c3noc4cc(F)ccc34)CC1)CCCC2 [Risperidone],"Locomotor activity totals, % vs Wild-type",rTg4510 mice; 0-30 minutes,95.7%
same,"Locomotor activity totals, % vs rTg4510",rTg4510 mice; 0-30 minutes,40.1%
same,"Locomotor activity totals, Mean",rTg4510 mice; 0-30 minutes,525.99
same,"Locomotor activity totals, % vs Wild-type",rTg4510 mice; 0-60 minutes,135.0%
same,"Locomotor activity totals, % vs rTg4510",rTg4510 mice; 0-60 minutes,49.4%
same,"Locomotor activity totals, Mean",rTg4510 mice; 0-60 minutes,1313.59
same,hyperlocomotion vs rTg4510(vehicle),"rTg4510 mice; 0-60 minutes, risperidone 0.125 mg/kg/d",significantly reversed
same,"Locomotor activity totals, % vs Wild-type",rTg4510 mice; 30-60 minutes,183.6%
same,"Locomotor activity totals, % vs rTg4510",rTg4510 mice; 30-60 minutes,46.9%
same,"Locomotor activity totals, Mean",rTg4510 mice; 30-60 minutes,641.92
same,"Locomotor activity totals, % vs Wild-type",rTg4510 mice; 60-90 minutes,104.9%
same,"Locomotor activity totals, % vs rTg4510",rTg4510 mice; 60-90 minutes,24.1%
same,"Locomotor activity totals, Mean",rTg4510 mice; 60-90 minutes,140.56
same,"Locomotor activity totals, % vs Wild-type",rTg4510 mice; 60-120 minutes,134.8%
same,"Locomotor activity totals, % vs rTg4510",rTg4510 mice; 60-120 minutes,39.8%
same,"Locomotor activity totals, Mean",rTg4510 mice; 60-120 minutes,384.49
same,"Locomotor activity totals, % vs Wild-type",rTg4510 mice; 90-120 minutes,241.3%
same,"Locomotor activity totals, % vs rTg4510",rTg4510 mice; 90-120 minutes,79.0%
same,"Locomotor activity totals, Mean",rTg4510 mice; 90-120 minutes,132.22
same,"Locomotor activity totals, % vs Wild-type",rTg4510 mice; 120-150 minutes,222.8%
same,"Locomotor activity totals, % vs rTg4510",rTg4510 mice; 120-150 minutes,130.5%
same,"Locomotor activity totals, Mean",rTg4510 mice; 120-150 minutes,210.31
same,"Locomotor activity totals, % vs Wild-type",rTg4510 mice; 150-180 minutes,399.5%
same,"Locomotor activity totals, % vs rTg4510",rTg4510 mice; 150-180 minutes,103.1%
same,"Locomotor activity totals, Mean",rTg4510 mice; 150-180 minutes,82.39
same,"Locomotor activity totals, % vs Wild-type",rTg4510 mice; 180-210 minutes,136.3%
same,"Locomotor activity totals, % vs rTg4510",rTg4510 mice; 180-210 minutes,103.4%
same,"Locomotor activity totals, Mean",rTg4510 mice; 180-210 minutes,27.84
same,"Locomotor activity totals, % vs Wild-type",rTg4510 mice; 210-240 minutes,37.5%
same,"Locomotor activity totals, % vs rTg4510",rTg4510 mice; 210-240 minutes,56.3%
same,"Locomotor activity totals, Mean",rTg4510 mice; 210-240 minutes,6.99
same,time engaged in active social behaviour (VPA deficit),rat VPA model,not prevented
